Results: PubChem BioAssay AID1919001 (Molecular Pharmacology Branch, DTP, NCI, 2023)

System: 699152-130-R-J1-PDC complex spheroid growth
Test: Anticancer human tumor 699152-130-R-J1-PDC patient-derived pancreatic carcinoma cell line growth inhibition [AhR]
Conditions: for IC50: curve of first compound; for viability, T/C: stronger effect = lower value
Summary of the method: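 Complex tumor spheroids co-cultured with HUVEC and human MSC stroma; AhR antagonists tested in combination with standard-of-care and investigational agents. Top concentration at or near clinical Cmax (else 10 microM), half-log dilutions; growth expressed as percent test/control.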

[1] = second compound 0.1 µM, first compound 0.00316 µM
[2] = second compound 0.1 µM, first compound 0.01 µM
[3] = second compound 0.1 µM, first compound 0.0316 µM
[4] = second compound 0.1 µM, first compound 0.1 µM
[5] = second compound 0.316 µM, first compound 0.00316 µM
[6] = second compound 0.316 µM, first compound 0.01 µM
[7] = second compound 0.316 µM, first compound 0.0316 µM
[8] = second compound 0.316 µM, first compound 0.1 µM
[9] = second compound 1 µM, first compound 0.00316 µM
[10] = second compound 1 µM, first compound 0.01 µM
[11] = second compound 1 µM, first compound 0.0316 µM
[12] = second compound 1 µM, first compound 0.1 µM
[13] = second compound 3.16 µM, first compound 0.00316 µM
[14] = second compound 3.16 µM, first compound 0.01 µM
[15] = second compound 3.16 µM, first compound 0.0316 µM
[16] = second compound 3.16 µM, first compound 0.1 µM
[17] = second compound 10 µM, first compound 0.00316 µM
[18] = second compound 10 µM, first compound 0.01 µM
[19] = second compound 10 µM, first compound 0.0316 µM
[20] = second compound 10 µM, first compound 0.1 µM
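Note: compound exposure lasted 7 days after spheroids had grown for 3 days.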

For `Nc1ncn(C2CC(O)C(CO)O2)c(=O)n1` (stereo not given) + CC(CO)NC(=O)c1cc(-c2ccc(Cl)cc2)nn(-c2cnn(C)c2)c1=O, the IC50 (second compound 0.1 µM) was greater than 1000 nM, the IC50 (second compound 0.316 µM) was greater than 1000 nM and the IC50 (second compound 1 µM) was greater than 1000 nM. For the same compound, the IC50 (second compound 3.16 µM) was greater than 1000 nM, the IC50 (second compound 10 µM) was greater than 1000 nM and the viability, T/C [1] was 90.2%. The viability, T/C [2] was 100%, the viability, T/C [3] was 97% and the viability, T/C [4] was 102%. It also gave a viability, T/C (second compound 0.1 µM, first compound 0.316 µM) of 96.9%, a viability, T/C (second compound 0.1 µM, first compound 1 µM) of 93.3% and a viability, T/C [5] of 89.5%. The viability, T/C [6] was 100%, the viability, T/C [7] was 86.7% and the viability, T/C [8] was 87.2%. It also gave a viability, T/C (second compound 0.316 µM, first compound 0.316 µM) of 87.8%, a viability, T/C (second compound 0.316 µM, first compound 1 µM) of 72.2% and a viability, T/C [9] of 112%. For the same compound, the viability, T/C [10] was 103%, the viability, T/C [11] was 107% and the viability, T/C [12] was 87.7%. The viability, T/C (second compound 1 µM, first compound 0.316 µM) was 77.7%, the viability, T/C (second compound 1 µM, first compound 1 µM) was 82.3% and the viability, T/C [13] was 75.4%. It also gave a viability, T/C [14] of 87.6%, a viability, T/C [15] of 82.2% and a viability, T/C [16] of 82.1%. It also gave a viability, T/C (second compound 3.16 µM, first compound 0.316 µM) of 81%, a viability, T/C (second compound 3.16 µM, first compound 1 µM) of 70% and a viability, T/C [17] of 85.8%. The viability, T/C [18] was 85.3%, the viability, T/C [19] was 79.9% and the viability, T/C [20] was 70%. The viability, T/C (second compound 10 µM, first compound 0.316 µM) was 66.6% and the viability, T/C (second compound 10 µM, first compound 1 µM) was 77.1%.

`CC[C@@]1(O)C(=O)OCc2c1cc1n(c2=O)Cc2cc3c(CN(C)C)c(O)ccc3nc2-1` + Cc1cncc(-c2nc(NCCc3c[nH]c4ccccc34)c3ncn(C(C)C)c3n2)c1 was tested, and the IC50 (second compound 0.1 µM) was greater than 100 nM, the IC50 (second compound 0.316 µM) was greater than 100 nM and the IC50 (second compound 1 µM) was greater than 100 nM. The IC50 (second compound 3.16 µM) was greater than 100 nM, the IC50 (second compound 10 µM) was less than 0.316 nM and the viability, T/C (second compound 0.1 µM, first compound 0.000316 µM) was 102%. For the same compound, the viability, T/C (second compound 0.1 µM, first compound 0.001 µM) was 98.5%, the viability, T/C [1] was 100% and the viability, T/C [2] was 101%. It also gave a viability, T/C [3] of 80.7%, a viability, T/C [4] of 69.6% and a viability, T/C (second compound 0.316 µM, first compound 0.000316 µM) of 101%. It also gave a viability, T/C (second compound 0.316 µM, first compound 0.001 µM) of 98.4%, a viability, T/C [5] of 98% and a viability, T/C [6] of 93.9%. The viability, T/C [7] was 80.3%, the viability, T/C [8] was 66.5% and the viability, T/C (second compound 1 µM, first compound 0.000316 µM) was 105%. For the same compound, the viability, T/C (second compound 1 µM, first compound 0.001 µM) was 107%, the viability, T/C [9] was 105% and the viability, T/C [10] was 99.4%. For the same compound, the viability, T/C [11] was 83.9%, the viability, T/C [12] was 62.9% and the viability, T/C (second compound 3.16 µM, first compound 0.000316 µM) was 112%. For the same compound, the viability, T/C (second compound 3.16 µM, first compound 0.001 µM) was 92.8%, the viability, T/C [13] was 95% and the viability, T/C [14] was 93.7%. The viability, T/C [15] was 64%, the viability, T/C [16] was 54.7% and the viability, T/C (second compound 10 µM, first compound 0.000316 µM) was 12.6%. For the same compound, the viability, T/C (second compound 10 µM, first compound 0.001 µM) was 11.5%, the viability, T/C [17] was 10.6% and the viability, T/C [18] was 12.1%. For the same compound, the viability, T/C [19] was 11.1% and the viability, T/C [20] was 14.1%.
